Measurements from patent publication US5990122A, “Quinolone- and naphthyridonecarboxylic acid derivatives” (Bayer Aktiengesellschaft, priority 1994, dated 1999).
Values after ≈ are worked out from the molar mass of the structure shown. Read-outs that look alike come from different tables or passages of the source.

Experiments:
Assay type in all cases: cell-based
Bac. fragilis ES 25 = assay: minimum inhibitory concentration (MIC), series dilution method on Iso-Sensitest agar; conditions: about 20 hours
Protocol: (§1) The minimum inhibitory concentrations (MIC) were determined by a series dilution method on Iso-Sensitest agar (Oxoid). For each test substance, a series of agar plates each comprising concentrations of the active compound decreasing by double dilution in each case was prepared. The agar plates were inoculated with a multipoint inoculator (Denley). Overnight cultures of the pathogens which had been diluted beforehand such that each inoculation point comprised about 10^4 colony-forming particles were used for the inoculation. The inoculation agar plates were incubated at 37° C. and the germ growth was read off after about 20 hours. The MIC value (μg/ml) indicated the lowest active compound concentration at which no growth was detectable with the naked eye.

E. coli Neumann = assay: as above; conditions: 37° C., about 20 hours
Protocol: as §1

Staph. aureus ICB 25701 = assay: as above; conditions: about 20 hours
Protocol: as §1

Staph. aureus 133 = assay: as above; conditions: 37° C., about 20 hours
Protocol: as §1

Ps. aeruginosa Walter = assay: as above; conditions: 37° C., about 20 hours
Protocol: as §1

[1] = inhibition of DNA synthesis in cells from ovaries of the Chinese hamster (CHO-KI), genotoxic potential, fluorophotometric; conditions: hamster, cho-k1 cells, measure of the genotoxic potential, read-out: ID50 (concentration at which DNA synthesis in CHO-KI cells is inhibited by 50%)
Source text: (§2) The following Tables 1 and 2 show the minimum inhibitory concentrations as a measure of the antibacterial activity and the ID50 values as a measure of the genotoxic potential of a substance both for compounds according to the invention and for reference compounds from the prior art (EP 520 240). The compounds according to the invention are distinguished in particular by the fact that they have lower interactions with mammalian DNA compared with the compounds according to the prior art. The ID50 is understood as meaning the concentration of a substance at which DNA synthesis in cells from ovaries of the Chinese hamster (CHO-KI) is inhibited by 50%. This value is determined after incubation of the corresponding substances in decreasing dilution stages over defined periods of time. For this, the DNA synthesis in CHO-KI cells is determined in comparison with controls by means of fluorophotometric methods.

CHO-KI cells = assay: as above; conditions: measure of the genotoxic potential
Source text: as §2

[2] = Bacteroides fragilis, ES25, 37° C., read-out: MIC
[3] = Escherichia coli, read-out: MIC
[4] = Staphylococcus aureus, ICB25701, 37° C., read-out: MIC
[5] = Staphylococcus aureus, read-out: MIC
[6] = Pseudomonas aeruginosa, read-out: MIC

Row | MIC (Bac. fragilis ES 25; [2]) | MIC (E. coli Neumann; [3]) | MIC (Staph. aureus ICB 25701; [4]) | MIC (Staph. aureus 133; [5]) | MIC (Ps. aeruginosa Walter; [6]) | MIC (Bac. fragilis ES 25; 37° C.) | MIC (E. coli Neumann) | MIC (Staph. aureus ICB 25701; 37° C.) | MIC (Staph. aureus 133) | MIC (Ps. aeruginosa Walter) | SMILES | IC50 [1] | ID50 (concentration at which DNA synthesis in CHO-KI cells is inhibited by 50%) (CHO-KI cells)
1 | 16 µg/mL (≈ 39.1 µM) | 0.125 µg/mL (≈ 0.305 µM) | 8 µg/mL (≈ 19.5 µM) | 0.062 µg/mL (≈ 0.151 µM) | 8 µg/mL (≈ 19.5 µM) | – | – | – | – | – | NC12C=CC(CC1)C1CN(c3cc4c(cc3F)c(=O)c(C(=O)O)cn4C3CC3)CC12 (centres unmarked) [Example 1, 7-(1-amino-4-aza-tricyclo[5.2.2.0^2,6]undec-8-en-4-yl)-1-cyclopropyl-6-fluoro-1,4-dihydro-4-oxo-3-quinolinecarboxylic acid] | 24 µg/mL (≈ 58.6 µM) | –
2 | 0.5 µg/mL (≈ 1.17 µM) | 0.015 µg/mL (≈ 0.0351 µM) | 0.062 µg/mL (≈ 0.145 µM) | 0.015 µg/mL (≈ 0.0351 µM) | 0.5 µg/mL (≈ 1.17 µM) | – | – | – | – | – | NC12C=CC(CC1)C1CN(c3c(F)cc4c(=O)c(C(=O)O)cn(C5CC5)c4c3F)CC12 (centres unmarked) [Example 2] | 1 µg/mL (≈ 2.34 µM) | –
3 | 0.125 µg/mL (≈ 0.282 µM) | 0.015 µg/mL (≈ 0.0338 µM) | 0.031 µg/mL (≈ 0.0698 µM) | 0.015 µg/mL (≈ 0.0338 µM) | 0.5 µg/mL (≈ 1.13 µM) | – | – | – | – | – | NC12C=CC(CC1)C1CN(c3c(F)cc4c(=O)c(C(=O)O)cn(C5CC5)c4c3Cl)CC12 (centres unmarked) [Example 3, 7-(1-Amino-4-aza-tricyclo[5.2.2.0^2,6]undec-8-en-4-yl)-8-chloro-1-cyclopropyl-6-fluoro-1,4-dihydro-4-oxo-3-quinoline-carboxylic acid] | 4 µg/mL (≈ 9.01 µM) | –
4 | 0.125 µg/mL (≈ 0.284 µM) | 0.015 µg/mL (≈ 0.0341 µM) | 0.031 µg/mL (≈ 0.0705 µM) | 0.015 µg/mL (≈ 0.0341 µM) | 1 µg/mL (≈ 2.28 µM) | – | – | – | – | – | COc1c(N2CC3C4C=CC(N)(CC4)C3C2)c(F)cc2c(=O)c(C(=O)O)cn(C3CC3)c12 (centres unmarked) [Example 5, 7-(1-amino-4-aza-tricyclo[5.2.2.0^2,6]undec-8-en-4-yl)-1-cyclopropyl-6-fluoro-1,4-dihydro-8-methoxy-4-oxo-3-quinolinecarboxylic acid] | 8 µg/mL (≈ 18.2 µM) | –
5 | 0.25 µg/mL (≈ 0.524 µM) | 0.06 µg/mL (≈ 0.126 µM) | 0.125 µg/mL (≈ 0.262 µM) | 0.015 µg/mL (≈ 0.0314 µM) | 4 µg/mL (≈ 8.38 µM) | – | – | – | – | – | NC12C=CC(CC1)C1CN(c3c(F)cc4c(=O)c(C(=O)O)cn(C5CC5)c4c3C(F)(F)F)CC12 (centres unmarked) [Example 6, 7-(1-Amino-4-aza-tricyclo[5.2.2.0^2,6]undec-8-en-4-yl)-1-cyclopropyl-6-fluoro-1,4-dihydro-4-oxo-8-trifluoromethyl-3-quinolinecarboxylic acid] | 10 µg/mL (≈ 20.9 µM) | –
6 | 1 µg/mL (≈ 2.33 µM) | 0.03 µg/mL (≈ 0.0699 µM) | 0.25 µg/mL (≈ 0.582 µM) | 0.015 µg/mL (≈ 0.0349 µM) | 2 µg/mL (≈ 4.66 µM) | – | – | – | – | – | NC12CCC(CC1)C1CN(c3c(F)cc4c(=O)c(C(=O)O)cn(C5CC5)c4c3F)CC12 (centres unmarked) [Example 18, 7-(1-amino-4-azatricyclo[5.2.2.0^2,6]undec-4-yl)-1-cyclopropyl-6,8-difluoro-1,4-dihydro-4-oxo-3-quinolinecarboxylic acid] | 1 µg/mL (≈ 2.33 µM) | –
7 | 0.125 µg/mL (≈ 0.28 µM) | 0.03 µg/mL (≈ 0.0673 µM) | 0.06 µg/mL (≈ 0.135 µM) | 0.015 µg/mL (≈ 0.0336 µM) | 1 µg/mL (≈ 2.24 µM) | – | – | – | – | – | NC12CCC(CC1)C1CN(c3c(F)cc4c(=O)c(C(=O)O)cn(C5CC5)c4c3Cl)CC12 (centres unmarked) [Example 19, 7-(1-amino-4-azatricyclo-[5.2.2.0^2,6]undec-4-yl)-8-chloro-1-cyclopropyl-6-fluoro-1,4-dihydro-4-oxo-3-quinolinecarboxylic acid] | 4 µg/mL (≈ 8.97 µM) | –
8 | 1 µg/mL (≈ 2.26 µM) | 0.03 µg/mL (≈ 0.0679 µM) | 0.125 µg/mL (≈ 0.283 µM) | 0.015 µg/mL (≈ 0.034 µM) | 2 µg/mL (≈ 4.53 µM) | – | – | – | – | – | COc1c(N2CC3C4CCC(N)(CC4)C3C2)c(F)cc2c(=O)c(C(=O)O)cn(C3CC3)c12 (centres unmarked) [Example 20, 7-(1-amino-4-azatricyclo[5.2.2.0^2,6]undec-4-yl)-1-cyclopropyl-6-fluoro-1,4-dihydro-8-methoxy-4-oxo-3-quinolinecarboxylic acid] | 16 µg/mL (≈ 36.2 µM) | –
9 | 0.125 µg/mL (≈ 0.261 µM) | 0.015 µg/mL (≈ 0.0313 µM) | 0.125 µg/mL (≈ 0.261 µM) | 0.015 µg/mL (≈ 0.0313 µM) | 4 µg/mL (≈ 8.34 µM) | – | – | – | – | – | NC12CCC(CC1)C1CN(c3c(F)cc4c(=O)c(C(=O)O)cn(C5CC5)c4c3C(F)(F)F)CC12 (centres unmarked) [Example 21, 7-(1-amino-4-azatricyclo[5.2.2.0^2,6]undec-4-yl)-1-cyclopropyl-6-fluoro-1,4-dihydro-4-oxo-8-trifluoromethyl-3-quinolinecarboxylic acid] | 10 µg/mL (≈ 20.9 µM) | –
10 | – | – | – | – | – | 4 µg/mL (≈ 9.02 µM) | 0.125 µg/mL (≈ 0.282 µM) | 2 µg/mL (≈ 4.51 µM) | 0.031 µg/mL (≈ 0.0699 µM) | 8 µg/mL (≈ 18 µM) | CN1COc2c(N3CC4C5CCC(N)(CC5)C4C3)c(F)c(N)c3c(=O)c(C(=O)O)cn1c23 (centres unmarked) [Example 22, 8-amino-10-(1-amino-4-azatricyclo[5.2.2.0^2,6]undecan-4-yl)-9-fluoro-3-methyl-7-oxo-2,3-dihydro-7H-pyrido[1,2,3-d,e][1,3,4]benzoxadiazine-6-carboxylic acid] | – | 8 µg/mL (≈ 18 µM)
11 | 0.5 µg/mL (≈ 1.2 µM) | 0.015 µg/mL (≈ 0.0361 µM) | 0.06 µg/mL (≈ 0.144 µM) | 0.015 µg/mL (≈ 0.0361 µM) | 0.5 µg/mL (≈ 1.2 µM) | – | – | – | – | – | CC1C=CC(N)C2CN(c3c(F)cc4c(=O)c(C(=O)O)cn(C5CC5)c4c3F)CC12 (centres unmarked) [Ref. 1, 7(4-amino-7-methyl-1,3,3a,4,7,7a-hexahydro-isoindol-2-y1)-1-cyclopropyl-6 8-difluoro-1,4-dihydro-4-oxo-3-quinolinecarboxylic acid, reference compound] | – | –
12 | 0.25 µg/mL (≈ 0.585 µM) | 0.015 µg/mL (≈ 0.0351 µM) | 0.015 µg/mL (≈ 0.0351 µM) | 0.015 µg/mL (≈ 0.0351 µM) | 1 µg/mL (≈ 2.34 µM) | – | – | – | – | – | COc1c(N2CC3C(C)C=CC(N)C3C2)c(F)cc2c(=O)c(C(=O)O)cn(C3CC3)c12 (centres unmarked) [Ref. 2, 7(4-amino-7-methyl-1,3,3a,4,7,7a-hexahydro-isoindol-2-y1)-1-cyclopropyl-6 fluoro-1,4-dihydro-8-methoxy-4-oxo-3-quinolinecarboxylic acid, reference compound] | – | –
13 | 0.125 µg/mL (≈ 0.289 µM) | 0.015 µg/mL (≈ 0.0347 µM) | 0.015 µg/mL (≈ 0.0347 µM) | 0.015 µg/mL (≈ 0.0347 µM) | 0.5 µg/mL (≈ 1.16 µM) | – | – | – | – | – | CC1C=CC(N)C2CN(c3c(F)cc4c(=O)c(C(=O)O)cn(C5CC5)c4c3Cl)CC12 (centres unmarked) [Ref. 3, 7(4-amino-7-methyl-1,3,3a,4,7,7a-hexahydro-isoindol-2-yl)-8-chloro-1-cycl propyl-6-fluoro-1,4-dihydro-4-oxo-3-quinolinecarboxylic acid, reference compound] | – | –
14 | 0.5 µg/mL (≈ 1.12 µM) | 0.03 µg/mL (≈ 0.0673 µM) | – | 0.015 µg/mL (≈ 0.0336 µM) | 1 µg/mL (≈ 2.24 µM) | – | – | – | – | – | CNC1C=CC(C)C2CN(c3c(F)cc4c(=O)c(C(=O)O)cn(C5CC5)c4c3Cl)CC12 (centres unmarked) [Ref. 4, 7(7-methyl-4-methylamino-1,3,3a,4,7,7a-hexahydro-isoindol-2-yl)-8-chloro- -cyclopropyl-6-fluoro-1,4-dihydro-4-oxo-3-quinolinecarboxylic acid, reference compound] | 0.1 µg/mL (≈ 0.224 µM) | –
